Results published in patent EP0369733A2, “Fluorescent indicator dyes for alkali metal cations, their preparation and use” (THE REGENTS OF THE UNIVERSITY OF CALIFORNIA, priority 1988, dated 1990).

Experiments:
[1] = Cation titration followed by absorbance or fluorescence excitation spectra: Mg²⁺ binding; details: 0.1 M tetramethylammonium chloride, 1-5 mM tris(hydroxymethyl)aminomethane, high pH, read-out: Dissociation constants (Kd) in mM for Mg²⁺
Procedure: (§1) • Footnote a: For molecular structures, see Fig. 1. • Footnote b: Except where otherwise noted, these dissociation constants were measured with the chelator dissolved in 0.1 M tetramethylammonium chloride, at a pH held high enough with 1-5 mM tris(hydroxymethyl)aminomethane for protonation to be insignificant. The absorbance spectrum, or the fluorescence excitation spectrum for those compounds (2GG, 2NN, 2OO, 2PP, 3NN) with acronyms was measured as a function of the concentration of cation added as a solid or concentrated aqueous solution of the halide salt. No correction has been made for the changing ionic strength of the solution, which started from 0.1 M and increased, but the absorbances and fluorescence amplitudes were applied for dilution of the dye and any slight quenching due to high concentrations of Cl⁻. • Footnote c: These protonation constants were determined in 0.1 M tetramethylammonium chloride, 10 mM tris(hydroxymethyl)aminomethane, titrated with 5 M H₃PO₄ to successively lower pH values measured with a Radiometer PHM84 meter. […] The first number is the wavelength in nanometers, followed in parentheses by 10⁻³ x the corresponding extinction coefficient, M⁻¹cm⁻¹. […] Emission maxima are not corrected for the spectral sensitivity of the emission detection. Quantum efficiencies were measured (13) by comparing the integral of the corrected emission spectrum with the corresponding integral for a solution of quinine bisulfate in 1 N H₂SO₄ of matched absorbance at the excitation wavelength.
(§2) Affinities for other cations were usually measured by titrating aqueous solutions of the indicator with metal chlorides added either as solid or from concentrated stock solutions, taking care to minimize dilution and correct for it. A convenient way to mass-produce premeasured micromole to millimole aliquots of solid NaCl or KCl was to pipet saline solutions into polypropylene micro test tubes and evaporate the water in an oven. The standard ionic background was again 100 mM tetramethylammonium chloride, usually with a few mM of tris(hydroxymethyl)-aminomethane base to hold the pH high enough (pH 8-9) to insure that protonation was negligible. This convenient titration procedure had the slight disadvantage that the ionic strength was not constant, especially when large quantities of a salt had to be added due to weak affinities. […] When constant ionic strength was desired, the chelator was made up at identical concentrations in matched solutions of NaCl, KCl, or tetramethylammonium chloride, then these stocks were mixed in the desired proportions.

physchem = details: 126 mm kcl, 14 mm nacl
Procedure: The lowest curve ([Na⁺] = 0) was obtained with 5 µM SBFI in 130 mM KCl, 10 mM MOPS, KOH to pH 7.05, approximately 135 mM total K⁺. The highest curve ([Na⁺] = 135 mM) was analogously recorded from 5 µM SBFI in 130 mM NaCl, 10 mM MOPS, NaOH to pH 7.05. The intermediate curves from 1.35 to 94.5 mM Na⁺ were obtained by successively 1/100, 1/99, 3/98, 1/19, 1/9, 1/4, and 1/2 of the K⁺-rich SBFI solution by the SBFI in Na medium. The excitation bandwidth was 1.85 nm; emission was collected at 500 nm with 9.3 nm bandwidth. […] The lowest curve was obtained in 130 mM NaCl, 10 mM MOPS, NaOH to pH 7.05. The highest curve was in 130 mM KCl, 10 mM MOPS, KOH to pH 7.05. The intermediate curves with 13.5 to 112.5 mM K⁺ were obtained by iteratively replacing 1/10, 1/9, 1/6, 1/4, 1/3, and 1/2 of the low K⁺ medium by the 135 mM KCl solution of PBFP.
Proton dissociation constants of the chelators were measured by spectrophotometry or spectrofluorometry of buffered solutions, containing either 100 mM tetramethylammonium chloride as inert supporting electrolyte, or 121.5 mM K⁺, 13.5 mM Na⁺, and 1 mM Mg²⁺ to simulate the cation environment of vertebrate cytoplasm (14). […] When the chelators contained two protonatable nitrogens, the curve of absorbance or fluorescence versus pH was analyzed by computerized least-squares fitting to the equations for two arbitrary proton equilibria (15), with the added assumption that the two protonations each caused the same change in extinction coefficient or fluorescence. This assumption was based on the presence of two identical chromophores in each chelator and produced good fits to the experimental data.

[2] = Effective Kd for Na⁺ against a K⁺ background; format: binding
Procedure: For comparison, Lehn's cryptand [2.2.1] (see ref. 5) is shown in the upper left hand corner. Below cryptand [2.2.1] are three generic types of crown ethers that have been prepared for use in the making some of the compounds of the present invention. To the right of the vertical dividing line are examples of some of the aromatic and heterocyclic substituents that can be attached to the nitrogens of the crown ethers. […] The lowest curve ([Na⁺] = 0) was obtained with 5 µM SBFI in 130 mM KCl, 10 mM MOPS, KOH to pH 7.05, approximately 135 mM total K⁺. The highest curve ([Na⁺] = 135 mM) was analogously recorded from 5 µM SBFI in 130 mM NaCl, 10 mM MOPS, NaOH to pH 7.05. […]
• Footnote a: For molecular structures, see Fig. 1. • Footnote b: Except where otherwise noted, these dissociation constants were measured with the chelator dissolved in 0.1 M tetramethylammonium chloride, at a pH held high enough with 1-5 mM tris(hydroxymethyl)aminomethane for protonation to be insignificant. The absorbance spectrum, or the fluorescence excitation spectrum for those compounds (2GG, 2NN, 2OO, 2PP, 3NN) with acronyms was measured as a function of the concentration of cation added as a solid or concentrated aqueous solution of the halide salt. […]

[3] = Cation titration followed by absorbance or fluorescence excitation spectra: Na⁺ binding
Procedure: as §1
as §2, with “proportions. All measurements were made at room temperature (22°, ±2° C).” for “proportions.”

[4] = Fluorescence excitation/emission spectra and quantum efficiency; format: physicochemical; details: for Quantum efficiency -Na⁺ / Quantum efficiency +Na⁺: relative to quinine bisulfate in 1 N H₂SO₄ (0.55); for Quantum efficiency +Na⁺: saturating Na⁺
Procedure: as §1
(§3) UV absorbance spectra were recorded initially on a Cary 210 and later on a Perkin-Elmer Lambda Array 3840 spectrophotometer. Fluorescence excitation and emission spectra and quantum efficiencies were measured on a Spex Fluorolog 111 as described previously (13).

[5] = UV absorbance spectra without and with saturating cation; format: physicochemical
Procedure: as §1, §3

Kd ([1]; listed as 2PP (SBFI)): 60 mM | Kd ([1]; listed as SBFI): ~60 mM | pKa (physchem): 6.09 | Kd ([2]; Na⁺-K⁺ mixtures, sum held constant at 135 mM, 1 mM Mg²⁺ present, pH 7.05, read-out: apparent dissociation constant for Na⁺): 17 to 19 mM | Kd ([2]; [Na⁺]+[K⁺] = 280 mM (cytoplasm of marine organisms), read-out: effective Kd for SBFI-Na⁺): 28 mM | Kd ([3]; 0.1 M tetramethylammonium chloride, 1-5 mM tris(hydroxymethyl)aminomethane, pH high enough for protonation to be insignificant, 22°, read-out: Dissociation constants (Kd) in mM for Na⁺): 7.4 mM | Na⁺ affinity ([3]; association constant, inert background cation (tetramethylammonium)): 166 M⁻¹ | Kd ([3]; summary statement, conditions not specified, read-out: dissociation constant (Na⁺), range achieved): 5 to 20 mM | Emission maxima -Na⁺ ([4]; 100 mM tetramethylammonium chloride, no Na⁺, not corrected for detector sensitivity): 551 nanometers | emission peak with Ca²⁺ ([4]; Ca²⁺ bound, large hypsochromic shift): 432 nm | excitation peak wavelength without Na⁺ ([4]; Na⁺-K⁺ mixtures, sum 135 mM, K⁺ only): 344 nm | excitation peak wavelength with Na⁺ ([4]; Na⁺-K⁺ mixtures, sum 135 mM, Na⁺ bound): 336 nm | Quantum efficiency -Na⁺ ([4]; no Na⁺, listed as 2PP (SBFI)): .045 | Quantum efficiency -Na⁺ ([4]; no Na⁺, listed as SBFI): 0.045 | Emission maxima +Na⁺ ([4]; saturating NaCl, not corrected for detector sensitivity): 525 nanometers | Quantum efficiency +Na⁺ ([4]; listed as 2PP (SBFI)): .063 | Quantum efficiency +Na⁺ ([4]; listed as SBFI): 0.08 | Absorbance maxima -Na⁺ (wavelength) ([5]; 100 mM tetramethylammonium chloride plus 1-5 mM Tris, no Na⁺): 346 nanometers | Absorbance maxima +Na⁺ (wavelength) ([5]; enough NaCl added (0.2-1 M) to saturate the Na⁺ binding): 334 nanometers | Absorbance maxima -Na⁺ (extinction coefficient) ([5]; number is 10⁻³ x the extinction coefficient, lower limits for most compounds, no Na⁺): 42000 M⁻¹ cm⁻¹ | Absorbance maxima +Na⁺ (extinction coefficient) ([5]; number is 10⁻³ x the extinction coefficient, lower limits, saturating NaCl (0.2-1 M)): 47000 M⁻¹ cm⁻¹ | extinction coefficients ([5]; without to with Na⁺, in M-1·cm-1 (unit assumed)): 42,000-47,000
Structure (SMILES): COc1cc2cc(-c3ccc(C(=O)O)cc3C(=O)O)oc2cc1N1CCOCCOCCN(c2cc3oc(-c4ccc(C(=O)O)cc4C(=O)O)cc3cc2OC)CCOCC1 [Compound 2PP, N,N-bis-(2-(2,4-dicarboxyphenyl)-5-methoxybenzofuran-6-yl)-diaza[15]-crown-5]
